Values quoted from earlier work in patent publication US20090312281A1, “PROCESS FOR THE PREPARATION OF A PULVERULENT COMPOSITION AND PRODUCT AS OBTAINED” (INNOV'IA, priority 2006, published 2009).

In the case of O=C(CO)[C@@H](O)[C@H](O)[C@H](O)CO [Fructose], the “Solubility in water at 60° C. (% weight/weight)” value is listed as 89 % weight/weight.

For OC[C@H]1O[C@@](CO)(O[C@H]2O[C@H](CO)[C@@H](O)[C@H](O)[C@H]2O)[C@@H](O)[C@@H]1O [Sucrose], the “Solubility in water at 60° C. (% weight/weight)” value is given as 71 % weight/weight.
